In US20240279212A1, “NOVEL INTERMEDIATE FOR PREPARATION OF PYROXASULFONE” (UPL LIMITED, priority 2021, published 2024):

What was measured:
[1] = Bulk density of Pyroxasulfone prepared in Example 8; format: physicochemical; details: product of Example 8 (H2O2/sodium tungstate oxidation, isopropyl alcohol/water treatment)
[2] = Particle size distribution of Pyroxasulfone prepared in Example 8; format: physicochemical; details: product of Example 8 (H2O2/sodium tungstate oxidation, isopropyl alcohol/water treatment)

For Cn1nc(C(F)(F)F)c(CS(=O)(=O)C2=NOC(C)(C)C2)c1OC(F)F [Pyroxasulfone, 3-[5-(difluoromethoxy)-1-methyl-3-(trifluoromethyl)pyrazol-4-ylmethylsulfonyl]-4,5-dihydro-5,5-dimethyl-1,2-oxazole], the Bulk density [1] was 0.54 to 0.57 g/mL and the “Particle Size Distribution: D50” value [2] was 113.30 μm.
